US5540917A, “Biomass lipase inhibitor useful for treating adiposity” (Hoffmann-La Roche Inc., priority 1992, dated 1996)

Key:
[1] = tested on: fat absorption; experiment: Fat absorption (C-14 triolein) in mice on fat diet, single and repeated administration of LOC; format: in vivo, Albino mice; conditions: LOC 50 mg/kg body wt.
Excerpt: Determination of the activity of a lipase inhibitor using the lipstatin derivative LOC defined above, by way of example, on the fat s absorption from the feed in the case of single and repeated administration to mice was undertaken.
3 Albino mice weighing 25 g were used per dose in the test.
The mice received over several days a so-called fat diet in which the fat content was adjusted such that the mice received 23.4 g of fat per kg body wt. per day. The mice were fed with this feed for 8 days. On days 3 to 6 of the test C-14, labelled triolein and LOC in a dose of 50 mg/kg body weight were admixed with this feed. The feces of the mice was collected at intervals of 24 hours from days 4 to 8 of the test and evaluated according to the guidelines given in Example 1.
The control animals each received the test diet without the LOC active substance.
The absorption of the orally administered fat was measured as in Examples 1, and 2.

[2] = tested on: fat absorption; experiment: Fat absorption from test meal in dogs (C-14 triolein recovery in feces), THL with or without cellulose; format: in vivo; conditions: for Triolein absorption in % of the applied dose: 26 g fat
Excerpt: Female dogs aged 7 to 15 years and having a body weight between 13 and 22 kg are divided into 2 groups each of 6 animals. The animals are fed with a standard dog food. The animals have free access to drinking water. The animals are given a test meal on the day of the test. This test meal contains as feed components 7.5% protein, 19% is carbohydrate, 6% fat, 1.6% minerals, 45% water and 20% ballast materials. The fat of the feed consists of 58% olive oil treated with C-14 triolein. The remaining fat is composed predominantly of saturated fatty acids. The absorption of the fat administered orally with the test diet was measured on the basis of the recovered radioactivity in the feces of the dogs. The difference between the orally-administered amount of C-14 labelled triolein and the radioactivity found in the feces within three days after intake of the test meal is considered to be absorbed fat. The absorbed amount is given as a percentage of the administered amount. The lower the absorption is, that is, the lower the percentage is, then the greater is the activity of the lipase inhibitor.

[3] = Blood plasma total glycerol in dogs after a test meal with THL and cellulose; format: in vivo; conditions: 50 mg THL + 80 g cellulose
Excerpt: Female dogs aged 7 to 15 years and having a body weight between 13 and 22 kg are divided into 2 groups each of 6 animals. The animals are fed with a standard dog food. The animals have free access to drinking water. The animals are given a test meal on the day of the test. This test meal contains as feed components 7.5% protein, 19% is carbohydrate, 6% fat, 1.6% minerals, 45% water and 20% ballast materials. The fat of the feed consists of 58% olive oil treated with C-14 triolein. The remaining fat is composed predominantly of saturated fatty acids. The blood plasma concentrations with respect to total glycerol of dogs which received test diet of 50 mg THL +80 g cellulose have been compared in Table 2 with those of a control without THL, but with cellulose.

[4] = Consistency of feces of the dogs; format: in vivo
[5] = tested on: fat absorption; experiment: Mouse test: fat absorption (C-14 triolein), pure LST versus LST in a fermentation cake; format: in vivo; conditions: oral, 3 mice
Experimental: Microbiologically-produced lipstatin (LST) is used as the lipase inhibitor in both parts of the test. LST is equivalent as a chemically pure substance with LST as a component of a fermentation cake produced according to Example 4 of EP 129 748. The content of LST in the cake was determined at 4 g of LST per kg of fresh fermentation cake using conventional analytical methods.
a) Mouse test Comparison of chemically pure LST with LST as a component of a fermentation cake.
Pure LST or the dried fermentation cake was suspended in 5% gum arabic/5% lactose preparation, conventional in pharmacological tests, and administered orally to animals, which had been pre-fasted for 24 hours, in an amount of 10 ml/kg per mouse immediately after a liquid test meal. The test meal contained 2.5% starch, 24% glucose, 12% lactose and 7.6% olive oil labelled with C-14 triolein. Thereafter, the mice received a conventional standard feed.
The calculation of the absorbed fat in the feed was carried out as described in Example 1.
The results of the test are reported in Table 3 in which the LST dose is calculated per mg/kg body weight. The values are average values calculated from measurements on, in each case, 3 mice per test.

[6] = tested on: fat absorption; experiment: Dog test: fat absorption (C-14 triolein), LST in the fermentation cake alone or with cellulose; format: in vivo, dogs; conditions: even when present in a fermentation cake; confirms mouse test
Excerpt: Female dogs aged 7 to 15 years and having a body weight between 13 and 22 kg are divided into 2 groups each of 6 animals. The animals are fed with a standard dog food. The animals have free access to drinking water.
The animals are given a test meal on the day of the test. This test meal contains as feed components 7.5% protein, 19% is carbohydrate, 6% fat, 1.6% minerals, 45% water and 20% ballast materials. The fat of the feed consists of 58% olive oil treated with C-14 triolein. The remaining fat is composed predominantly of saturated fatty acids.
The absorption of the fat administered orally with the test diet was measured on the basis of the recovered radioactivity in the feces of the dogs. The difference between the orally-administered amount of C-14 labelled triolein and the radioactivity found in the feces within three days after intake of the test meal is considered to be absorbed fat. The absorbed amount is given as a percentage of the administered amount. The lower the absorption is, that is, the lower the percentage is, then the greater is the activity of the lipase inhibitor.
Microbiologically-produced lipstatin (LST) is used as the lipase inhibitor in both parts of the test. […] The content of LST in the cake was determined at 4 g of LST per kg of fresh fermentation cake using conventional analytical methods. […]

**Q.** For CCCCCCCCCCCCCCCCC[C@@H](C[C@@H]1OC(=O)[C@H]1CC)OC(=O)[C@H](CC(C)C)NC=O [LOC, N-formyl-L-leucine (S)-1-[[(2S,3S)-3-ethyl-4-oxo-2-oxetanyl]methyl]octadecyl ester], which “Triolein absorption in % of the amount given orally (±SDM)” value ([1]; 1st day) is on record?
**A.** The value was 26 ± 4%.

**Q.** And the “Triolein absorption in % of the amount given orally (±SDM)” value ([1]; 4th day)?
**A.** Its value is 26 ± 3%.

**Q.** Which results are given for CCCCCCCCCCC[C@@H](C[C@@H]1OC(=O)[C@H]1CCCCCC)OC(=O)[C@H](CC(C)C)NC=O [THL, tetrahydrolipstatin]?
**A.** attenuated fat absorption ([2]; 50 mg THL + 80 g cellulose): 28%; Triolein absorption in % of the applied dose ([2]; THL 20 mg/test meal (1.5 mg/kg body wt.) + 80 g cellulose, 420 g test meal): 48%; Triolein absorption in % of the applied dose ([2]; THL 20 mg/test meal (1.5 mg/kg body wt.), no cellulose, 340 g test meal): 70%; Triolein absorption in % of the applied dose ([2]; THL 50 mg/test meal (4 mg/kg body wt.) + 80 g cellulose, 420 g test meal): 28%; Triolein absorption in % of the applied dose ([2]; THL 50 mg/test meal (4 mg/kg body wt.), no cellulose, 340 g test meal): 63%; activity of the lipase inhibitor when cellulose is added ([2]; THL + cellulose versus THL alone): considerably increased; inhibition of the absorption of the administered radioactively labelled fat in the feed ([2]; THL after addition of cellulose (about)): 52-70%; reduction of the absorption of fat contained in the feed ([2]; THL as sole additive to the test meal, depending on the dose (20 or 50 mg/meal)): 30-37%; Total plasma glycerol ([3]; 3 hrs. after administration): 0.5 ± 0.02 mmol/l ± SEM; Total plasma glycerol ([3]; 7 hrs. after administration): 0.9 ± 0.13 mmol/l ± SEM; Total plasma glycerol ([3]; before administration (starting value)): 0.7 ± 0.07 mmol/l ± SEM; plasma glycerol increase ([3]; 3 hours after test meal): no increase; increase in the absorption ([3]; 7 hours postprandial): slight increase; consistency of the feces ([4]; THL in combination with cellulose): solid and formed; consistency of the feces ([4]; THL without cellulose): rather pulp-like

**Q.** Which results are given for CCCCCCCCCCC[C@@H](C[C@@H]1OC(=O)[C@H]1CCCCCC)OC(=O)[C@H](CC(C)C)NC=O [pure LST, lipstatin]?
**A.** Triolein absorption in % per dose administered ([5]; LST dose 5.0 mg/kg): 69%; Triolein absorption in % per dose administered ([5]; LST dose 15 mg/kg): 52%; Triolein absorption in % per dose administered ([5]; LST dose 50.0 mg/kg): 41%; lipase inhibitor activity [6]: very active lipase inhibitor
